Reference: US20150079000A1, “Labelled Quinoxaline Derivatives as Multimodal Radiopharmaceuticals and Their Precursors” (INSTITUT NATIONAL DE LA SANTET DE LA RECHERCHE MEDICALE, priority 2012, published 2015)

Test system: melanoma B16F0 tumours
Assay: In vivo scintigraphic imaging of [125I]-labelled compounds
Parameters: species or system C57BL/6J mice
Details: planar scintigraphy
Description: C57BL/6J male mice (6-8 weeks old) were obtained from Charles River (l'Arbresle, France) and the B 16F0 syngenic melanoma from ATCC (no. CRL-6322). Primary melanoma model was induced by subcutaneous injection of B 16F0 murine melanoma cells in C57BL/6J mice. B 16F0 melanoma cell cultures were maintained as monolayers in Dulbecco's Modified Eagle's Medium (DMEM)/Glutamax (Invitrogen, Cergy Pontoise, France) supplemented with 10% fetal calf serum (Sigma, Saint Quentin Fallavier, France), 1% vitamins (Invitrogen, Cergy-Pontoise, France), 1 mM sodium pyruvate (Invitrogen), 1% non essential amino acids (Invitrogen), and 4 μg/mL of gentamycin base (Invitrogen). Cells were grown at 37° C. in a humidified incubator containing 5% CO2. For transplantation, cells in exponential growth phase were trypsinized, washed with phosphate buffer saline (PBS), and resuspended in PBS. C57BL/6J mice anesthetized by isoflurane (2%) inhalation were inoculated with 3×10^5 melanoma B16F0 cells in 0.1 mL of PBS by subcutaneous injection on the right flank.
In vivo scintigraphic imaging protocol was submitted and approved by the french regional ethical animal use committee (CEMEA, Auvergne, authorization no. CE18-09, 2010). Scintigraphic imaging of radioiodinated compounds in mice was performed using a gamma camera dedicated to small animal imaging (γIMAGER, Biospace Mesures, Paris, France). This camera consists of a R 3292 Hamamatsu position-sensitive photomultiplier having a continuous 4 mm thick×120 mm diameter CsI (Na) crystal leading to a 10 cm field of view. For ^125I imaging, the camera was equipped with parallel-hole collimator 1.8/0.2/20 (hole diameter/septum thickness/height in mm). All the acquisitions were performed with a 15% window centered on the 35 keV peak of ^125I.
On day 14 after tumour implantation, each [^125I]-labelled compound was administered intravenously via the tail vein with 3.7 MBq/mouse (range 3-8 animals/compounds). The injected activity to each mouse was also determined from scintigraphic imaging of the syringe before and after the injection of the radiotracer. At different times after administration (1 h, 3 h, 6 h, 24 h, 72 h, 5 d, 7 d, 10 d and 14 d), mice were anaesthetized by i.p. administration (200 μL/mouse) of a ketamine-xylazine mixture in saline: ketamine (100 mg/kg, Imalgene, Rhône Merieux, Lyon, France) and xylazine (10 mg/kg, Rompun, Bayer, France). A 10 min duration image was acquired on anesthetized mice placed in prone position over the collimator of the camera. Reproducibility in animal positioning for the serial images was achieved using a graduated reference grid.
Quantitative analysis of scintigraphic scans was performed using the GAMMAVISION+ software (Biospace Mesures, Paris, France). Regions of interest (ROIs) were manually drawn around the tumour, the whole body area, the bladder, the eyes, the submaxillary and thyroid glands and the controlateral muscle which was chosen as background. For each ROI, total activity, min and max pixel values, ROI size (in mm^2), average activity per mm^2 and standard deviation were obtained. These values were normalized to the injected activity. For the tumour, the activity was also normalized to the tumour weight as previously described (Miot-Noirault, Cancer biotherapy & radiopharmaceuticals, 24 (2009) 629-636) and expressed as percentage of injected dose per gram of tumour (% ID/g).

Structure (SMILES) | % ID/g (tumour) (1 h after i.v. injection) [% ID/g] | % ID/g (tumour) (3 h after i.v. injection) [% ID/g] | % ID/g (tumour) (6 h after i.v. injection) [% ID/g] | % ID/g (tumour) (24 h after i.v. injection) [% ID/g] | % ID/g (tumour) (72 h after i.v. injection) [% ID/g] | % ID/g (tumour) (5 d after i.v. injection) [% ID/g] | % ID/g (tumour) (7 d after i.v. injection) [% ID/g] | % ID/g (tumour) (10 d after i.v. injection) [% ID/g] | % ID/g (tumour) (14 d after i.v. injection) [% ID/g]
CCN(CCNC(=O)c1cnc2cc([125I])ccc2n1)CCOCCOCCOCCF.Cl.Cl [[^125I]3] | 11.7 ± 2.2 | 12.1 ± 1.7 | 12.1 ± 1.9 | 12.4 ± 2.3 | 8.6 ± 3.6 | 5.8 ± 2.4 | 2.7 ± 0.8 | 1.3 ± 0.4 | 0.6 ± 0.3
CCN(CCNC(=O)c1cnc2cc([125I])ccc2n1)Cc1cn(CCF)nn1 [[^125I]7] | 13.0 ± 1.5 | 14.5 ± 0.1 | 15.9 ± 1.7 | 15.6 ± 3.4 | 11.0 ± 0.7 | 8.6 ± 0.4 | 5.3 ± 0.8 | 3.7 ± 0.3 | 1.8 ± 0.4
